Source: patent publication US20210261570A1, “ANTIBIOTIC RESISTANCE BREAKERS” (KING'S COLLEGE LONDON, priority 2017, published 2021)
In brackets after ≈: the same amount, converted by molar mass. Like-named read-outs stand apart in the source and are kept apart here.

System: Neisseria gonorrhoeae strains
Assay type: cell-based
Source text: Untreated controls and blank wells were included.

Compound `C[C@H]1COc2c(N3CC[C@@H](Nc4ncccn4)C3)c(F)cc3c(=O)c(C(=O)O)cn1c23` [KSN-82-L22] has an MIC (strain 2007NG046, resistance PEN-R CFM-R CPD-R CIP-R) of 4 µg/mL (≈ 9.4 µM), an MIC (strain 2008NG057, resistance PEN-R CFM-R CPD-R CIP-R) of 2 µg/mL (≈ 4.7 µM) and an MIC (strain 2008NG097, resistance PEN-R CFM-R CPD-R CIP-R) of 2 µg/mL (≈ 4.7 µM). The MIC (strain 2009NG514, resistance PEN-R CPD-R CIP-R) was 2 µg/mL (≈ 4.7 µM), the MIC (strain 2010NG122, resistance PEN-R CFM-R CIP-R) was 2 µg/mL (≈ 4.7 µM) and the MIC (strain ATCC 49226, resistance PEN-I TET-I) was at most 0.03125 µg/mL. For the same compound, the MIC (strain ATCC 700825, resistance —) was at most 0.03125 µg/mL, the MIC (strain BAA-1833, resistance PEN-I TET-I) was at most 0.03125 µg/mL and the MIC (strain BAA-1838, resistance —) was at most 0.03125 µg/mL. It also gave an MIC (strain CCUG 57595, resistance —) of at most 0.03125 µg/mL, an MIC (strain CCUG 57596, resistance CIP-I PEN-I TET-R) of 0.125 µg/mL (≈ 0.294 µM) and an MIC (strain CCUG 57597, resistance FEP-NS FOX-I CAZ-NS CIP-R OFX-R PEN-R TET-R) of 2 µg/mL (≈ 4.7 µM). The MIC (strain CCUG 57598, resistance FOX-R CAZ-NS CRO-NS CIP-R OFX-R PEN-R TET-R) was 2 µg/mL (≈ 4.7 µM), the MIC (strain CCUG 57599, resistance CIP-R OFX-R PEN-R TET-R) was 0.5 µg/mL (≈ 1.18 µM) and the MIC (strain CCUG 57600, resistance CIP-R OFX-R PEN-R TET-R) was 1 µg/mL (≈ 2.35 µM). It also gave an MIC (strain CCUG 57601, resistance PEN-R TET-R) of at most 0.03125 µg/mL, an MIC (strain CCUG 57602, resistance PEN-I TET-I) of 0.0625 µg/mL (≈ 0.147 µM) and an MIC (strain FDA-CDC AR-BANK#0165, resistance CIP-R PEN-I TET-R) of 2 µg/mL (≈ 4.7 µM). For the same compound, the MIC (strain FDA-CDC AR-BANK#0166, resistance CIP-R PEN-I TET-R) was 2 µg/mL (≈ 4.7 µM), the MIC (strain FDA-CDC AR-BANK#0167, resistance CIP-S PEN-S TET-I) was at most 0.03125 µg/mL and the MIC (strain FDA-CDC AR-BANK#0168, resistance CIP-R PEN-I TET-R) was 1 µg/mL (≈ 2.35 µM). It also gave an MIC (strain FDA-CDC AR-BANK#0169, resistance CIP-R PEN-I TET-R) of 2 µg/mL (≈ 4.7 µM), an MIC (strain FDA-CDC AR-BANK#0170, resistance CIP-R PEN-I TET-R) of 2 µg/mL (≈ 4.7 µM) and an MIC (strain FDA-CDC AR-BANK#0171, resistance CIP-R PEN-I TET-R) of 1 µg/mL (≈ 2.35 µM). It also gave an MIC (strain FDA-CDC AR-BANK#0172, resistance CIP-R PEN-R TET-R) of 1 µg/mL (≈ 2.35 µM), an MIC (strain FDA-CDC AR-BANK#0173, resistance CIP-R PEN-R TET-R) of 2 µg/mL (≈ 4.7 µM) and an MIC (strain FDA-CDC AR-BANK#0174, resistance CIP-R PEN-R TET-R) of 2 µg/mL (≈ 4.7 µM). It also gave an MIC (strain FDA-CDC AR-BANK#0175, resistance CIP-S PEN-I TET-I) of at most 0.03125 µg/mL, an MIC (strain FDA-CDC AR-BANK#0176, resistance CIP-R PEN-R TET-R) of 2 µg/mL (≈ 4.7 µM) and an MIC (strain FDA-CDC AR-BANK#0177, resistance CIP-S PEN-I TET-R) of at most 0.03125 µg/mL. For the same compound, the MIC (strain FDA-CDC AR-BANK#0178, resistance CIP-R PEN-R TET-R) was 2 µg/mL (≈ 4.7 µM), the MIC (strain FDA-CDC AR-BANK#0179, resistance CIP-S PEN-S TET-I) was at most 0.03125 µg/mL and the MIC (strain FDA-CDC AR-BANK#0180, resistance CIP-R PEN-I TET-R) was 2 µg/mL (≈ 4.7 µM). It also gave an MIC (strain FDA-CDC AR-BANK#0181, resistance CIP-S PEN-I TET-R) of at most 0.03125 µg/mL, an MIC (strain FDA-CDC AR-BANK#0182, resistance CIP-R PEN-I TET-R) of 2 µg/mL (≈ 4.7 µM) and an MIC (strain FDA-CDC AR-BANK#0183, resistance CIP-R PEN-R TET-R) of 2 µg/mL (≈ 4.7 µM). The MIC (strain FDA-CDC AR-BANK#0184, resistance CIP-R PEN-R TET-R) was 2 µg/mL (≈ 4.7 µM), the MIC (strain FDA-CDC AR-BANK#0185, resistance CIP-R PEN-I TET-R) was 2 µg/mL (≈ 4.7 µM) and the MIC (strain FDA-CDC AR-BANK#0186, resistance CIP-R PEN-R TET-R) was 1 µg/mL (≈ 2.35 µM). For the same compound, the MIC (strain FDA-CDC AR-BANK#0187, resistance CIP-R PEN-I TET-R) was 2 µg/mL (≈ 4.7 µM), the MIC (strain FDA-CDC AR-BANK#0188, resistance CIP-R PEN-I TET-R) was 1 µg/mL (≈ 2.35 µM) and the MIC (strain FDA-CDC AR-BANK#0189, resistance CIP-R PEN-R TET-R) was 2 µg/mL (≈ 4.7 µM). For the same compound, the MIC (strain FDA-CDC AR-BANK#0190, resistance CIP-R PEN-R TET-R) was 2 µg/mL (≈ 4.7 µM), the MIC (strain FDA-CDC AR-BANK#0191, resistance CIP-R PEN-R TET-R) was 2 µg/mL (≈ 4.7 µM) and the MIC (strain FDA-CDC AR-BANK#0192, resistance CIP-R PEN-R TET-R) was 2 µg/mL (≈ 4.7 µM). The MIC (strain FDA-CDC AR-BANK#0193, resistance CIP-S PEN-R TET-R) was at most 0.03125 µg/mL, the MIC (strain FDA-CDC AR-BANK#0194, resistance CRO-NS CIP-S PEN-I TET-R) was at most 0.03125 µg/mL and the MIC (strain FDA-CDC AR-BANK#0195, resistance CIP-R PEN-I TET-R) was 2 µg/mL (≈ 4.7 µM).
